From patent publication US20120115907A1, “NOVEL COMPOUNDS AS INHIBITORS OF RENIN” (CADILA HEALTHCARE LIMITED, priority 2009, published 2012)
Structures can show the parent of a compound that is named as a salt.

Molecular target: T1, human recombinant renin (Homo sapiens, UniProt P00797)
T1 construct: purchased Cayman 10006270
T1 sequence (P00797 67-406): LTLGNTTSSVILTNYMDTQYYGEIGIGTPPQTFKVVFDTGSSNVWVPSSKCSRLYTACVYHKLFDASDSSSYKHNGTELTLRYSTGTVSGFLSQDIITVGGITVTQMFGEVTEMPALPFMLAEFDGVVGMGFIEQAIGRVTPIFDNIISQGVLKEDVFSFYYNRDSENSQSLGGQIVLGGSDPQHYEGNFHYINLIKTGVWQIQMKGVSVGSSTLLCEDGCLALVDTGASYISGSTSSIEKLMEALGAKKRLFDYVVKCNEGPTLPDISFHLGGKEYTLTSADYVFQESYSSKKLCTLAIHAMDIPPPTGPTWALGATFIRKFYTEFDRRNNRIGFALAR
Test: Inhibition of human recombinant renin (modified Cayman renin inhibitor screening assay, fluorescence)
Type: biochemical
Conditions: for inhibition at 0.01 µM / Renin inhibition (percent inhibition of renin activity) at 0.01 μM: 0.01 μM compound; for inhibition at 0.01 µM / inhibition at 0.1 µM / Renin inhibition (percent inhibition of renin activity) at 0.01 μM / Renin inhibition (percent inhibition of renin activity) at 0.1 μM: 37° C., 30 mins, human recombinant renin; for inhibition at 0.01 µM: read-out: Renin inhibition (percent inhibition of renin activity) at 0.01 μM; for inhibition at 0.1 µM / Renin inhibition (percent inhibition of renin activity) at 0.1 μM: 0.1 μM compound; for inhibition at 0.1 µM: read-out: Renin inhibition (percent inhibition of renin activity) at 0.1 μM
Description: In-vitro protocol for the Inhibition of human recombinant renin by the compound of invention • Procedure: The enzymatic in vitro assay was performed in 96 well polypropylene plate (Nunc), using a modified Renin inhibitor screening assay protocol (Cayman, cat no: 10006270). The reaction system comprised assay buffer containing 50 mM Tris-HCL, pH=8.0 & 100 mM sodium chloride, human recombinant rennin (1:20 diluted with fixed activity), synthetic renin substrates (Cayman, cat no: 10006906) (14.4 μM) and different concentrations of renin inhibitors in DMSO in a total reaction system of 100 μl. The entire reaction mixture were incubated at 37° C. for 30 mins and the fluorescence was read at excitation wavelengths of 320-360 nm and emission wavelengths of 490-520 nm. Test compounds efficacy was determined by the percent inhibition of renin activity using Aliskiren (Tekturna) as a reference standard.
Following table represents measured IC50 values of the selected compounds for its inhibition of human recombinant renin.

SMILES	inhibition at 0.01 µM [%]	inhibition at 0.1 µM [%]	further results
Cc1cc(Cl)c(OCCOc2ccc(C(=O)NC3CCNCC3C(=O)N(Cc3ccc(Cl)cc3Cl)C3CC3)cc2)c(Cl)c1 (mixture of isomers) [Example 5, N-Cyclopropyl-4-(4-(2-(2,6-dichloro-4-methylphenoxy)ethoxy)benzamido)-N-(2,4-dichlorobenzyl)piperidine-3-carboxamide]	42	81	IC50: 39 nM
COCCCOc1cccc(CN(C(=O)C2CNCCC2NC(=O)c2ccc(OCCOc3c(Cl)cccc3Cl)cc2)C2CC2)c1 (stereo not shown) [Example 3, N-Cyclopropyl-4-(4-(2-(2,6-dichlorophenoxy)ethoxy)benzamido)-N-(3-(3-methoxypropoxy)benzyl)piperidine-3-carboxamide]	< 10	43	–
Cc1cc(C)cc(CN(C(=O)C2CNCCC2NC(=O)c2ccc(OCCOc3c(Cl)cccc3Cl)cc2)C2CC2)c1 (stereo not shown) [Example 4, N-Cyclopropyl-4-(4-(2-(2,6-dichlorophenoxy)ethoxy)benzamido)-N-(3,5-dimethylbenzyl)piperidine-3-carboxamide]	< 10	47	–
O=C(NC1CCNCC1C(=O)N(Cc1ccc(Cl)cc1Cl)C1CC1)c1ccc(OCCOc2c(Cl)cccc2Cl)cc1 (stereo not shown) [Example 6, N-Cyclopropyl-N-(2,4-dichlorobenzyl)-4-(4-(2-(2,6-dichlorophenoxy)ethoxy)benzamido) piperidine-3-carboxamide]	–	–	Renin inhibition (percent inhibition of renin activity) at 0.01 μM: * (Inactive at tested concentration); Renin inhibition (percent inhibition of renin activity) at 0.1 μM: 40%
COc1ccc(CN(C(=O)C2CNCCC2NC(=O)c2ccc(OCCOc3c(Cl)cc(C)cc3Cl)cc2)C2CC2)cc1OC (stereo not shown) [Example 8, N-Cyclopropyl-4-(4-(2-(2,6-dichloro-4-methylphenoxy)ethoxy)benzamido)-N-(3,4-dimethoxybenzyl)piperidine-3-carboxamide]	< 10	41	–
Cc1cc(C)cc(CN(C(=O)C2CNCCC2NC(=O)c2ccc(OCCOc3c(Cl)cc(C)cc3Cl)cc2)C2CC2)c1 (stereo not shown) [Example 10, N-Cyclopropyl-4-(4-(2-(2,6-dichloro-4-methylphenoxy)ethoxy)benzamido)-N-(3,5-dimethylbenzyl)piperidine-3-carboxamide]	< 10	44	–
Cc1cc(Cl)c(OCCOc2ccc(C(=O)NC3CCNCC3C(=O)N(Cc3ccc4ccccc4c3)C3CC3)cc2)c(Cl)c1 (stereo not shown) [Example 12, N-Cyclopropyl-4-(4-(2-(2,6-dichloro-4-methylphenoxy)ethoxy)benzamido)-N-(naphthalen-2-ylmethyl)piperidine-3-carboxamide]	43	89	IC50: 64 nM
COc1cccc(CN(C(=O)C2CNCC[C@@H]2NC(=O)c2ccc(OCCOc3c(Cl)cc(C)cc3Cl)cc2)C2CC2)c1OC.Cl (stereo partly drawn) [Example 14, (4S)—N-cyclopropyl-4-(4-(2-(2,6-dichloro-4-methylphenoxy)ethoxy)benzamido)-N-(2,3-dimethoxybenzyl)piperidine-3-carboxamide hydrochloride]	19	–	Renin inhibition (percent inhibition of renin activity) at 0.1 μM (hydrochloride, 0.1 µM): 66%
COc1cccc(CN(C(=O)C2CNCC[C@@H]2NC(=O)c2ccc(OCCOc3c(Cl)cc(C)cc3Cl)cc2)C2CC2)c1OC.Cl (stereo partly drawn) [Example 15, (4S)—N-cyclopropyl-4-(4-(2-(2,6-dichloro-4-methylphenoxy)ethoxy)benzamido)-N-(2,3-dimethoxybenzyl)piperidine-3-carboxamide hydrochloride]	–	–	Renin inhibition (percent inhibition of renin activity) at 0.01 μM (hydrochloride, 0.01 µM): 13%; Renin inhibition (percent inhibition of renin activity) at 0.1 μM (hydrochloride, 0.1 µM): 12%
COc1ccccc1COCCOc1ccc(C(=O)N[C@H]2CCNCC2C(=O)N(Cc2cccc(C)c2C)C2CC2)cc1 (stereo partly drawn) [Example 16, (4S)—N-Cyclopropyl-N-(2,3-dimethylbenzyl)-4-(4-(2-((2-methoxybenzyl)oxy)ethoxy)benzamido)piperidine-3-carboxamide]	11	52	–
Cc1cc(Cl)c(OCCOc2ccc(C(=O)N[C@H]3CCNCC3C(=O)N(Cc3ccc(C)c(C)c3)C3CC3)cc2)c(Cl)c1.Cl (stereo partly shown) [Example 18]	–	–	Renin inhibition (percent inhibition of renin activity) at 0.01 μM: 20%; Renin inhibition (percent inhibition of renin activity) at 0.1 μM: 56%
Cc1cc(Cl)c(OCCOc2ccc(C(=O)N[C@H]3CCNCC3C(=O)N(Cc3cccc(C)c3C)C3CC3)cc2)c(Cl)c1 (stereo partly drawn) [Example 20, (4S)—N-Cyclopropyl-4-(4-(2-(2,6-dichloro-4-methylphenoxy)ethoxy)benzamido)-N-(2,3-dimethylbenzyl)piperidine-3-carboxamide hydrochloride]	48	91	IC50: 13 nM
Cc1cc(Cl)c(OCCOc2ccc(C(=O)N[C@@H]3CCNCC3C(=O)N(Cc3ccc(C)c(C)c3)C3CC3)cc2)c(Cl)c1 (stereo partly drawn) [Example 22, (4R)—N-Cyclopropyl-4-(4-(2-(2,6-dichloro-4-methylphenoxy)ethoxy)benzamido)-N-(3,4-dimethylbenzyl)piperidine-3-carboxamide hydrochloride]	< 10	40	–
Cc1cc(Cl)c(OCCOc2ccc(C(=O)N[C@@H]3CCNCC3C(=O)N(Cc3cccc(C)c3C)C3CC3)cc2)c(Cl)c1 (stereo partly drawn) [Example 24, (4R)—N-Cyclopropyl-4-(4-(2-(2,6-dichloro-4-methylphenoxy)ethoxy)benzamido)-N-(2,3-dimethylbenzyl)piperidine-3-carboxamide hydrochloride]	10	83	–
COc1ccccc1COCCCOc1ccc(C(=O)N[C@H]2CCNCC2C(=O)N(Cc2cccc(C)c2C)C2CC2)cc1.Cl (stereo partly shown) [Example 27]	–	–	Renin inhibition (percent inhibition of renin activity) at 0.01 μM (hydrochloride): * (Inactive at tested concentration); Renin inhibition (percent inhibition of renin activity) at 0.1 μM (hydrochloride, 0.1 µM): 38%
COc1ccccc1COCCCOc1ccc(C(=O)N[C@H]2CCNCC2C(=O)N(Cc2cccc(C)c2C)C2CC2)cc1 (stereo partly drawn) [Example 28, (4S)—N-Cyclopropyl-N-(2,3-dimethylbenzyl)-4-(4-(3-((2-methoxybenzyl)oxy)propoxy)benzamido)piperidine-3-carboxamide hydrochloride]	60	93	–
Cc1cc(Cl)c(OCCOc2ccc(C(=O)N[C@H]3CCNCC3C(=O)N(Cc3ccccc3F)C3CC3)cc2)c(Cl)c1 (stereo partly drawn) [Example 29, (4S)—N-Cyclopropyl-4-(4-(2-(2,6-dichloro-4-methylphenoxy)ethoxy)benzamido)-N-(2-fluorobenzyl)piperidine-3-carboxamide hydrochloride]	11	65	–
Cc1cc(Cl)c(OCCOc2ccc(C(=O)N[C@H]3CCNCC3C(=O)N(Cc3ccccc3Cl)C3CC3)cc2)c(Cl)c1 (stereo partly drawn) [Example 30, (4S)—N-(2-Chlorobenzyl)-N-cyclopropyl-4-(4-(2-(2,6-dichloro-4-methylphenoxy)ethoxy)benzamido)piperidine-3-carboxamide hydrochloride]	< 10	87	–
COc1ccccc1COCCCOc1ccc(C(=O)N[C@H]2CCNCC2C(=O)N(Cc2ccccc2OC)C2CC2)cc1 (stereo partly drawn) [Example 33, (4S)—N-Cyclopropyl-N-(2-methoxybenzyl)-4-(4-(3-((2-methoxybenzyl)oxy)propoxy)benzamido)piperidine-3-carboxamide hydrochloride]	< 10	17	–
Cc1cc(Cl)c(OCCOc2ccc(C(=O)N[C@H]3CCNCC3C(=O)N(Cc3cccc(Cl)c3Cl)C3CC3)cc2)c(Cl)c1 (stereo partly drawn) [Example 35, (4S)—N-Cyclopropyl-4-(4-(2-(2,6-dichloro-4-methylphenoxy)ethoxy)benzamido)-N-(2,3-dichlorobenzyl)piperidine-3-carboxamide hydrochloride]	60	95	–
COc1cccc(CN(C(=O)C2CNCC[C@@H]2NC(=O)c2ccc(OCCOc3c(Cl)cc(C)cc3Cl)cc2)C2CC2)c1C (stereo partly drawn) [Example 37, (4S)—N-Cyclopropyl-4-(4-(2-(2,6-dichloro-4-methylphenoxy)ethoxy)benzamido)-N-(3-methoxy-2-methylbenzyl)piperidine-3-carboxamide hydrochloride]	24	81	IC50: 17 nM
